Active and inactive are the calls of the source. The rule behind the calls is not given here.
Columns and labels:
[1] = molecular target: ALK tyrosine kinase receptor (Homo sapiens, UniProt Q9UM73); assay: Inhibition of recombinant human wild type ALK using tyrosine kinase substrate-biotin after 30 mins by HTRF assay
[2] = molecular target: ALK tyrosine kinase receptor (Homo sapiens, UniProt Q9UM73, L1196M); assay: Inhibition of recombinant human ALK L1196M mutant using tyrosine kinase substrate-biotin after 30 mins by HTRF assay
ALK tyrosine kinase receptor (Homo sapiens, UniProt Q9UM73, L1196M), sequence (Q9UM73 19-1620 L1196M limits assumed): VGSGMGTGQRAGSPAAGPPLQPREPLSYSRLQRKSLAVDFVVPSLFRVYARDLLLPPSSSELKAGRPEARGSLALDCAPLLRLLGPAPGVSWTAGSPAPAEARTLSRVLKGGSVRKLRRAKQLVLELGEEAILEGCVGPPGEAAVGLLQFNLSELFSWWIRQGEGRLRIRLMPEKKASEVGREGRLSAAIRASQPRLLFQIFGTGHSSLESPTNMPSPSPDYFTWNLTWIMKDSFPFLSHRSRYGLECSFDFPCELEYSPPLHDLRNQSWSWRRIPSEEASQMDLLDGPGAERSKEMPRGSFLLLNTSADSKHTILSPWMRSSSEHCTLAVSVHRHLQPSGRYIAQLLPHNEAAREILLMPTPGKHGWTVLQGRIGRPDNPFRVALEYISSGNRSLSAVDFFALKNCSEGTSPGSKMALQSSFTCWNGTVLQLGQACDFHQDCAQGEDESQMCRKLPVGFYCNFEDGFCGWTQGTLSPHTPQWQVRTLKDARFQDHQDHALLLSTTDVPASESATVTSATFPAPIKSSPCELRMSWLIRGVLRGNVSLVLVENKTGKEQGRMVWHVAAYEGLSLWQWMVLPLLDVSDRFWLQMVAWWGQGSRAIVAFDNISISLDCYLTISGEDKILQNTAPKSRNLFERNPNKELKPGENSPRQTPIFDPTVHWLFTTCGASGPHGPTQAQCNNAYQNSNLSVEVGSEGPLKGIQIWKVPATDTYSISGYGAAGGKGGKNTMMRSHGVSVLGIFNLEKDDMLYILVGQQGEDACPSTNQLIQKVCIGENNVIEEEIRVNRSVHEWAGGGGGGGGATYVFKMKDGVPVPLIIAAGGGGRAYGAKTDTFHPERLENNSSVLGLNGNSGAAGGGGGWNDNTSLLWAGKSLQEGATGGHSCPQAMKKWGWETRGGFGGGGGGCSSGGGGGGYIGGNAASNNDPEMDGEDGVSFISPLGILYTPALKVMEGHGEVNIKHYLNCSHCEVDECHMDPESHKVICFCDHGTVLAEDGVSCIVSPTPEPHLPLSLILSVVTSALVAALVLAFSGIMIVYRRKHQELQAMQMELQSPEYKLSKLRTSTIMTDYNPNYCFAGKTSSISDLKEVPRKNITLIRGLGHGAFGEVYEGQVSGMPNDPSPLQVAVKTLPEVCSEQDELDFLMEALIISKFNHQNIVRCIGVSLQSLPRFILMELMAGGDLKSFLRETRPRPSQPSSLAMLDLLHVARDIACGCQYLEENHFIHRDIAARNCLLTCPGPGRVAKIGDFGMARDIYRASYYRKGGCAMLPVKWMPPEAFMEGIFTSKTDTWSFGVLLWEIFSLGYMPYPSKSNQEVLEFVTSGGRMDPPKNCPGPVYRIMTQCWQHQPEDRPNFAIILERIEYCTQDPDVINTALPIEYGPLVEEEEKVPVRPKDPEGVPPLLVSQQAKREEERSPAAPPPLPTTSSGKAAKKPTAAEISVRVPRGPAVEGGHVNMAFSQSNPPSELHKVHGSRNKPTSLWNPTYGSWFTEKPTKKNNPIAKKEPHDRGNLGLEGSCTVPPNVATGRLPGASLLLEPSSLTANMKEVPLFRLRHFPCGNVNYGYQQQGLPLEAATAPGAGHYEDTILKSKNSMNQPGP

[3] = Antiproliferative activity against human KARPAS299 cells after 96 hrs by CellTiter-Glo assay; assay type: functional, cell-based; conditions: KARPAS-299, 96 h
NCI-H2228 [4] = assay: Antiproliferative activity against human NCI-H2228 cells after 96 hrs by CellTiter-Glo assay; assay type: functional, cell-based; conditions: NCI-H2228, 96 h
[5] = Ratio of IC50 for human ERG to IC50 for human NCI-H2228 cells
[6] = Clearance in Sprague-Dawley rat at 1 mg/kg, iv; assay type: ADME, organism-based; conditions: in vivo
[7] = Oral bioavailability in Balb/c nude mouse at 5 mg/kg; assay type: ADME, organism-based; conditions: in vivo
[8] = AUC(0 to infinity) in Sprague-Dawley rat at 1 mg/kg, iv; assay type: ADME, organism-based; set-up: dose 1 mg/kg, route intravenous, time infinity; conditions: in vivo
[9] = Volume of distribution in Balb/c nude mouse at 1 mg/kg, iv; assay type: ADME, organism-based; conditions: in vivo
NCI-H2228 [10] = conditions: Homo sapiens
Description: Antitumor activity against human NCI-H2228 cells xenografted in Balb/c nude mouse assessed as tumor growth inhibition administered as po qd for two weeks

NCI-H2228 [11] = conditions: Homo sapiens; remark: listed apart in the source
Description: Antitumor activity against human NCI-H2228 cells xenografted in Balb/c nude mouse assessed as tumor growth inhibition at 10 mg/kg, po qd administered for two weeks

NCI-H2228 [12] = assay: Antitumor activity against human NCI-H2228 cells xenografted in Balb/c nude mouse assessed as tumor growth inhibition at 30 mg/kg, po qd administered for two weeks measured on day 14 post last dose; assay type: functional; conditions: 336 h, read-out: TGI
[13] = Tmax in Sprague-Dawley rat at 5 mg/kg, po; assay type: ADME, organism-based; conditions: in vivo
[14] = Clearance in Balb/c nude mouse at 1 mg/kg, iv; assay type: ADME, organism-based; conditions: in vivo
[15] = AUC(0 to infinity) in Sprague-Dawley rat at 5 mg/kg, po; assay type: ADME, organism-based; set-up: dose 5 mg/kg, route oral, time infinity; conditions: in vivo
NCI-H2228 [16] = conditions: Homo sapiens; remark: listed apart in the source
Description: Antitumor activity against human NCI-H2228 cells xenografted in Balb/c nude mouse assessed as tumor growth inhibition at 30 mg/kg, po qd administered for two weeks measured after 1 week during compound dosing

[17] = Half life in Sprague-Dawley rat at 1 mg/kg, iv; assay type: ADME, organism-based; conditions: in vivo
[18] = AUC(0 to infinity) in Balb/c nude mouse at 5 mg/kg, po; assay type: ADME, organism-based; set-up: dose 5 mg/kg, time infinity, route oral; conditions: in vivo
[19] = Volume of distribution in Sprague-Dawley rat at 1 mg/kg, iv; assay type: ADME, organism-based; conditions: in vivo
[20] = Oral bioavailability in Sprague-Dawley rat at 5 mg/kg; assay type: ADME, organism-based; conditions: in vivo
[21] = Clearance in Beagle dog at 1 mg/kg, iv; assay type: ADME, organism-based, Canis lupus familiaris; conditions: in vivo
[22] = Tmax in Beagle dog at 3 mg/kg, po; assay type: ADME, organism-based, Canis lupus familiaris; conditions: in vivo
[23] = Half life in Balb/c nude mouse at 1 mg/kg, iv; assay type: ADME, organism-based; conditions: in vivo
[24] = Half life in Beagle dog at 1 mg/kg, iv; assay type: ADME, organism-based, Canis lupus familiaris; conditions: in vivo
[25] = AUC(0 to infinity) in Balb/c nude mouse at 1 mg/kg, iv; assay type: ADME, organism-based; set-up: dose 1 mg/kg, route intravenous, time infinity; conditions: in vivo
[26] = Tmax in Balb/c nude mouse at 5 mg/kg, po; assay type: ADME, organism-based; conditions: in vivo
Mus musculus [27] = assay: Toxicity in Balb/c nude mouse xenografted with human NCI-H2228 cells assessed as change in body weight at 30 mg/kg, po qd administered for two weeks; assay type: organism-based; conditions: in vivo
[28] = Cmax in Sprague-Dawley rat at 5 mg/kg, po; assay type: ADME, organism-based; set-up: dose 5 mg/kg, route oral; conditions: in vivo
[29] = Cmax in Beagle dog at 3 mg/kg, po; assay type: ADME, organism-based, Canis lupus familiaris; set-up: dose 3 mg/kg, route oral; conditions: in vivo
Mus musculus [30] = assay: In vivo inhibition of ALK in human KARPAS299 cells xenografted in mouse assessed as suppression of STAT3 phosphorylation at 20 mg/kg measured after 8 hrs; assay type: functional; conditions: KARPAS-299, 8 h
[31] = AUC(0 to infinity) in Beagle dog at 3 mg/kg, po; assay type: ADME, organism-based, Canis lupus familiaris; set-up: dose 3 mg/kg, route oral, time infinity; conditions: in vivo
NCI-H2228 [32] = assay: Antitumor activity against human NCI-H2228 cells xenografted in Balb/c nude mouse assessed as tumor growth inhibition at 3 mg/kg, po qd administered for two weeks measured on day 14 post last dose; assay type: functional; conditions: 336 h, read-out: TGI
[33] = Volume of distribution in Beagle dog at 1 mg/kg, iv; assay type: ADME, organism-based, Canis lupus familiaris; conditions: in vivo
[34] = AUC(0 to infinity) in Beagle dog at 1 mg/kg, iv; assay type: ADME, organism-based, Canis lupus familiaris; set-up: dose 1 mg/kg, time infinity, route intravenous; conditions: in vivo
[35] = Cmax in Balb/c nude mouse at 5 mg/kg, po; assay type: ADME, organism-based; set-up: dose 5 mg/kg, route oral; conditions: in vivo
[36] = Oral bioavailability in Beagle dog at 3 mg/kg; assay type: ADME, organism-based, Canis lupus familiaris; conditions: in vivo

ALK tyrosine kinase receptor (Homo sapiens, UniProt Q9UM73), sequence (Q9UM73 whole entry): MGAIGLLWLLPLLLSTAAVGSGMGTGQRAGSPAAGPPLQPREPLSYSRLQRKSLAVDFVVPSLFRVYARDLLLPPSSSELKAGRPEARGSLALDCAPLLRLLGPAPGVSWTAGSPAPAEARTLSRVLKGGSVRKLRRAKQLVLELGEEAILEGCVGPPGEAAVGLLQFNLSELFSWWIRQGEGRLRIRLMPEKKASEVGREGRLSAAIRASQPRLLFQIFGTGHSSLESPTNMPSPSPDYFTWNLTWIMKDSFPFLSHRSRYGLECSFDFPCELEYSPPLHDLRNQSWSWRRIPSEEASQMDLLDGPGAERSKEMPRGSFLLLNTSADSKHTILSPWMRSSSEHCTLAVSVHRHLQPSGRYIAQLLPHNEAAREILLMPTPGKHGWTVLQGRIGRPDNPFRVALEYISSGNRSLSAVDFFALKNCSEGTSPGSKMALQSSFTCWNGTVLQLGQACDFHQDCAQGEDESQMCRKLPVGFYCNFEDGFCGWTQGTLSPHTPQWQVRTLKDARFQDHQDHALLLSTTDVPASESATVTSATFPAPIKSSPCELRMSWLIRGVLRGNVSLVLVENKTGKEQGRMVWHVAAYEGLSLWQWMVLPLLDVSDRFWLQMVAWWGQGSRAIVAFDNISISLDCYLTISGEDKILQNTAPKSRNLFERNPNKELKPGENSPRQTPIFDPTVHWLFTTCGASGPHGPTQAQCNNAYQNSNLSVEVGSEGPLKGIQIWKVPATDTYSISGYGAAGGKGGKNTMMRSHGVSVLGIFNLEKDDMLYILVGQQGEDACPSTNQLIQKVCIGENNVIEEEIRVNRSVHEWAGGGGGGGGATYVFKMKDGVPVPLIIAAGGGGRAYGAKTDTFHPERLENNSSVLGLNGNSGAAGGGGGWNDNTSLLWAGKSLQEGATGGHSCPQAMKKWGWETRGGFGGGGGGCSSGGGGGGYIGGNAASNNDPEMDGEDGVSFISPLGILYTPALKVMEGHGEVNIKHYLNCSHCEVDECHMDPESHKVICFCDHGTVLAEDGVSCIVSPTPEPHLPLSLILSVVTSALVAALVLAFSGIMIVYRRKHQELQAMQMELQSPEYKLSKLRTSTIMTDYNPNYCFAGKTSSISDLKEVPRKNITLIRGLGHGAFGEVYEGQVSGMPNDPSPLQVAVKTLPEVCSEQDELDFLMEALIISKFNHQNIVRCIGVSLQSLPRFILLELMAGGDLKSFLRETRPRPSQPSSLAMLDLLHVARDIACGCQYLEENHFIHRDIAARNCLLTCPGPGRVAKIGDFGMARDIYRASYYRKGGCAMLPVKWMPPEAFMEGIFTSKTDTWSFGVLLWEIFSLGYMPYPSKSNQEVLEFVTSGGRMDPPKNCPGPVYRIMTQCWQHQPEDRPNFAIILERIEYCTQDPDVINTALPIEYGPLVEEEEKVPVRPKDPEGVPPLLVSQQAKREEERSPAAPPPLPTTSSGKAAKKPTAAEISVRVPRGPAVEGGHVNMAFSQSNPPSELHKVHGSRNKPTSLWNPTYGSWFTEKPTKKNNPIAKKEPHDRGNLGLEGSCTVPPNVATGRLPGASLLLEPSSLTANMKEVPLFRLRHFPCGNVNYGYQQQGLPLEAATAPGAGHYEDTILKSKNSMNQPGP

SMILES: Cc1cc(Nc2ncc(Cl)c(Nc3cn(C)nc3S(C)(=O)=O)n2)c(OC(C)C)cc1C1CCNCC1
- IC50 [1]: 56 nM
- IC50 [2]: 94 nM
- IC50 [3]: 288 nM

SMILES: Cc1cc(Nc2ncc(Cl)c(Nc3cn(C)nc3S(=O)(=O)C(C)C)n2)c(OC2CC2)cc1[C@H]1CC[C@H](NC(=O)C2CC2)CC1
- IC50 (NCI-H2228 [4]): 154 nM

SMILES: Cc1cc(Nc2ncc(Cl)c(Nc3cn(C)nc3S(=O)(=O)C(C)C)n2)c(OC2CC2)cc1[C@H]1CC[C@@H](NC2CC2)CC1
- IC50 [1]: 8 nM
- Ratio IC50 [5]: 15
- IC50 [2]: 20 nM
- IC50 (NCI-H2228 [4]): 116 nM

SMILES: Cc1cc(Nc2ncnc(Nc3cn(C)nc3S(=O)(=O)C(C)C)n2)c(OC2CC2)cc1C1CCN(C)CC1
- IC50 [1]: 36 nM
- IC50 [2]: 111 nM

SMILES: CC(=O)N1CCN([C@H]2CC[C@H](c3cc(OC4CC4)c(Nc4ncc(Cl)c(Nc5cn(C)nc5S(=O)(=O)C(C)C)n4)cc3C)CC2)CC1
- clearance [6]: 21.9 mL/min/kg
- bioavailability [7]: 76.5%
- AUC(0-inf) [8]: 770 ng·h/mL
- Ratio IC50 [5]: 33
- Vd [9]: 4.6 L/kg
- TGI (NCI-H2228 [10]): Dose-dependent effect
- TGI (NCI-H2228 [11]): Active
- inhibition in vivo at 30 mg/kg (NCI-H2228 [12]): 140%
- Tmax [13]: 6 h
- clearance [14]: 37.5 mL/min/kg
- AUC(0-inf) [15]: 3200 ng·h/mL
- TGI (NCI-H2228 [16]): Active
- half-life [17]: 4.5 h
- AUC(0-inf) [18]: 1700 ng·h/mL
- Vd [19]: 8.5 L/kg
- bioavailability [20]: 85.3%
- clearance [21]: 11.1 mL/min/kg
- Tmax [22]: 1 h
- half-life [23]: 1.4 h
- half-life [24]: 6.4 h
- AUC(0-inf) [25]: 445 ng·h/mL
- Tmax [26]: 0.5 h
- Activity (Mus musculus [27]): Non-toxic
- Cmax [28]: 220 ng/mL
- Cmax [29]: 355 ng/mL
- IC50 (NCI-H2228 [4]): 76 nM
- inhibition in vivo at 20 mg/kg (Mus musculus [30]): 79.2%
- AUC(0-inf) [31]: 3340 ng·h/mL
- inhibition in vivo at 3 mg/kg (NCI-H2228 [32]): 50%
- IC50 [3]: 7 nM
- Vd [33]: 6.1 L/kg
- AUC(0-inf) [34]: 1500 ng·h/mL
- Cmax [35]: 446 ng/mL
- bioavailability [36]: 74%

SMILES: Cc1cc(Nc2ncc(F)c(Nc3cn(C)nc3S(=O)(=O)C(C)C)n2)c(OC2CC2)cc1C1CCN(C)CC1
- IC50 (NCI-H2228 [4]): 81 nM

SMILES: Cc1cc(Nc2ncc(Cl)c(Nc3cn(C)nc3S(=O)(=O)C(C)C)n2)c(OC2CC2)cc1[C@H]1CC[C@H](NCCN(C)C)CC1
- IC50 (NCI-H2228 [4]): 210 nM

SMILES: Cc1cc(Nc2ncc(Cl)c(Nc3cn(C)nc3S(=O)(=O)C(C)C)n2)c(OC2CC2)cc1C1CCC(N2CCN(C)CC2)CC1 (mixture of isomers)
- Ratio IC50 [5]: 6
- IC50 (NCI-H2228 [4]): 141 nM

SMILES: CCN(CC)[C@H]1CC[C@@H](c2cc(OC3CC3)c(Nc3ncc(Cl)c(Nc4cn(C)nc4S(=O)(=O)C(C)C)n3)cc2C)CC1
- IC50 (NCI-H2228 [4]): 60 nM

SMILES: Cc1cc(Nc2ncc(Cl)c(Nc3cn(C)nc3S(=O)(=O)C(C)C)n2)c(OC2CC2)cc1C1CCS(=O)(=O)CC1
- IC50 [1]: 3 nM
- Ratio IC50 [5]: 206
- IC50 [2]: 9 nM
- IC50 (NCI-H2228 [4]): 97 nM

SMILES: Cc1cc(Nc2ncc(Cl)c(Nc3cn(C)nc3S(=O)(=O)C(C)C)n2)c(OC2CC2)cc1[C@H]1CC[C@H](NC2CC2)CC1
- Ratio IC50 [5]: 23
- IC50 (NCI-H2228 [4]): 88 nM
- IC50 [3]: 9 nM

SMILES: CCN(CC)[C@H]1CC[C@H](c2cc(OC3CC3)c(Nc3ncc(Cl)c(Nc4cn(C)nc4S(=O)(=O)C(C)C)n3)cc2C)CC1
- IC50 (NCI-H2228 [4]): 68 nM

SMILES: Cc1cc(Nc2ncc(Cl)c(Nc3cn(C)nc3S(=O)(=O)C(C)C)n2)c(OC2CC2)cc1[C@H]1CC[C@H](NC(C)C)CC1
- Ratio IC50 [5]: 16
- IC50 (NCI-H2228 [4]): 54 nM
- IC50 [3]: 5 nM

SMILES: Cc1cc(Nc2ncc(Cl)c(Nc3cn(C)nc3S(=O)(=O)C(C)C)n2)c(OC2CC2)cc1[C@H]1CC[C@@H](NC(C)C)CC1
- IC50 [1]: 5 nM
- Ratio IC50 [5]: 15
- IC50 [2]: 10 nM
- IC50 (NCI-H2228 [4]): 72 nM

SMILES: Cc1cc(Nc2ncc(C#N)c(Nc3cn(C)nc3S(=O)(=O)C(C)C)n2)c(OC2CC2)cc1C1CCN(C)CC1
- IC50 (NCI-H2228 [4]): 87 nM

SMILES: Cc1cc(Nc2ncc(Cl)c(Nc3c[nH]nc3S(=O)(=O)C(C)C)n2)c(OC(C)C)cc1C1CCNCC1
- IC50 [1]: 22 nM
- IC50 [2]: 28 nM
- IC50 [3]: 1250 nM

— ChEMBL document CHEMBL3785058, “Design and synthesis of novel 3-sulfonylpyrazol-4-amino pyrimidines as potent anaplastic lymphoma kinase (ALK) inhibitors” (Bioorg Med Chem Lett, 2016)
